The text below walks through data of the METLIN SMRT retention time set (Domingo-Almenara et al. 2019).

The series in a line: gradient 5% acetonitrile 3 min, to 50% in 2 min, to 85% in 15 min, held 3 min, 100 µL/min. To be noted: column: Zorbax Extend-C18 2.1 x 50 mm; eluents: water / acetonitrile, 0.1% formic acid. The method, boiled down: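 The mobile phases were water and acetonitrile, each with 0.1% formic acid, pumped at 100 μL/min through a Zorbax Extend-C18 column (2.1 × 50 mm, 1.8 μm). Pure standards were injected as mixtures of ~100 molecules and detected by a quadrupole time-of-flight mass spectrometer in positive and negative ionization mode. Retention time came from computationally picked adduct peaks, each inspected by hand.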
The compound `Cn1ncc2c(N3CCOCC3)nc(C(=O)NCc3ccc(F)cc3)nc21` yielded an RP-LC retention time of 708 s.

On to `CCc1nc2c(c(=O)n1CC(=O)NC1CCCC1)CN(Cc1ccccc1)CC2`, for which the RP-LC retention time came to 621 s.

`COc1cccc(S(=O)(=O)N2CCC(Cc3nncn3C(C)C)C2)c1` (stereo not given) registered an RP-LC retention time of 664 s.

Compound `CCCN1C(=O)c2c(C(=O)NCc3cccc(F)c3)ncn2CC1(C)C(=O)NCCC(C)C` (stereo not given) came in with an RP-LC retention time of 843 s.

As to `CN1C(=O)Cc2ccccc2C1C(=O)N1CCN(c2ccc(Cl)cc2)CC1` (stereo not given), the RP-LC retention time worked out at 854 s.

As for `Cc1cc2c(cc1S(=O)(=O)N1CCCC1C(=O)NC1CCCC1)OC(C)C(=O)N2` (stereo not given), the RP-LC retention time was 730 s.

With `COc1ccc(OCc2nc(-c3ccc(NS(C)(=O)=O)cc3)no2)cc1`, the RP-LC retention time stood at 868 s.

On to `O=C(Nc1ccc2cn[nH]c2c1)C1(c2ccccc2)CCOCC1`, for which the RP-LC retention time was 676 s.

As for `CCOC(=O)c1nc(Nc2cccc(OC)c2)c2ccccc2n1`, the RP-LC retention time was 854 s.

Take `CCn1cnc(S(=O)(=O)N2CCC(C(=O)Nc3ccc(C)c(Cl)c3)CC2)c1`: the RP-LC retention time came to 822 s.

The compound `CSc1nnc(NC(=O)c2cc(Cl)ccc2Cl)s1` came in with an RP-LC retention time of 808 s.

`O=C(C1CCCN(c2cnc3nccnc3c2)C1)N1CCCCCC1` (stereo not given) registered an RP-LC retention time of 692 s.

In turn, `CSc1ccc(Cc2nnc(NC(=O)c3nn(C)cc3C)o2)cc1` registered an RP-LC retention time of 694 s.

In the case of `Cc1cccc(OCC(=O)N2C[C@@H](F)C[C@H]2C(=O)N2CCc3ccccc32)c1`, the RP-LC retention time stood at 878 s.

In turn, `Cc1cn(C)c(CC(=O)Nc2ccc(Cl)cc2)c1C(=O)O` came in with an RP-LC retention time of 804 s.

In turn, `CC1=NS(=O)(=O)c2cccnc2N1c1cccc(Br)c1` had an RP-LC retention time of 825 s.

The compound `Cc1cccn2cc(-c3cccc(S(=O)(=O)N4CCCCCC4)c3)nc12` registered an RP-LC retention time of 692 s.

`O=C(c1cccc(F)c1)N1CCC(n2c(-c3ccco3)nc3cccnc32)C1` (stereo not given) displayed an RP-LC retention time of 744 s.

Consider `Cn1cccc1C(=O)N1CCC2(CC1)NC(=O)N(Cc1ccc(Cl)cc1)C2=O`, for which the RP-LC retention time is 817 s.

As for `Cc1nc(-c2csc(S(=O)(=O)NC3CCCCCC3)c2)sc1C`, the RP-LC retention time came to 1150 s.

The compound `O=C(C1CCN(c2cnn(Cc3ccccc3)c(=O)c2)CC1)N1CCc2ccccc2C1` displayed an RP-LC retention time of 829 s.

In turn, `Cc1nc(-c2csc(S(=O)(=O)N3CCC(C(=O)NCCC4=CCCCC4)CC3)c2)no1` returned an RP-LC retention time of 971 s.

Regarding `COc1ccc(OC)c(S(=O)(=O)Cc2nc(-c3cccc(Br)c3)no2)c1`, the RP-LC retention time was found to be 1030 s.

In turn, `CCCn1cnnc1C1CCCCN1C(=O)NCc1ccc(OC)cc1` (stereo not given) yielded an RP-LC retention time of 659 s.

`O=C(Cn1ncc2c(c1=O)N(CC1CC1)C(=O)CS2)Nc1cccc(C(F)(F)F)c1` came in with an RP-LC retention time of 869 s.

The compound `CCn1ccnc1N1CCN(CC(=O)Nc2cc(Cl)ccc2OC)CC1` gave an RP-LC retention time of 552 s.

As for `COc1cccc(Nc2cc(C(=O)N3CCSCC3)nc3c(OC)cccc23)c1`, the RP-LC retention time came to 679 s.

Take `O=C(Nc1ccccc1F)N1CCC(CCNC(=O)C2(c3ccccc3)CC2)CC1`: the RP-LC retention time is 889 s.

Turning to `O=c1c(Nc2ccc(F)c(F)c2)nc2ccncc2n1Cc1ccccc1`, the RP-LC retention time was determined as 775 s.

The compound `CCOc1ccc(-c2nc(CN3CCN(C(=O)NC(C)C)CC3)c(C)o2)cc1` returned an RP-LC retention time of 656 s.

Compound `CS(=O)(=O)N[C@H]1C[C@@H]2C[C@H]1CN2C(=O)c1ccc(C(F)(F)F)cc1` showed an RP-LC retention time of 571 s.

Take `CCOc1ccc(NC(=O)N2CCC(n3cnnc3C3CC3)C2)cc1` (stereo not given): the RP-LC retention time was determined as 630 s.

`CC(=O)N1CCN(S(=O)(=O)c2ccc(C(=O)O)cc2)CC1` had an RP-LC retention time of 591 s.

Take `CCCCn1c(=O)c2ccccc2n(Cc2nc(-c3cccc(OC)c3)no2)c1=O`: the RP-LC retention time is 1160 s.

In turn, `COCCn1cc2c3c(cccc31)CN(C(=O)Nc1ccc(OC)c(F)c1)CC2` showed an RP-LC retention time of 891 s.

On to `Cc1cc(=O)n(CC(=O)Nc2ccc(C)c(C)c2)c(N2CCCCC2)n1`, for which the RP-LC retention time came out at 717 s.

The compound `Cc1noc([C@@H]2CN(C(=O)c3cscn3)C[C@H]2C(N)=O)n1` registered an RP-LC retention time of 556 s.

With `CCOC(=O)c1ccccc1NC(=O)NCC(c1cccnc1)c1c[nH]c2ccccc12` (stereo not given), the RP-LC retention time was 756 s.

`Cc1ccc(-c2cc(C(=O)O)c3c(-c4ccc(C)cc4)[nH]nc3n2)cc1` yielded an RP-LC retention time of 856 s.

Compound `COc1cccc(-c2cc(C(=O)N3CCN(c4ccc(N5CCOCC5)nn4)CC3)[nH]n2)c1` had an RP-LC retention time of 610 s.

Turning to `COC(=O)c1c(NCCc2cccs2)c2ccc(F)cc2[nH]c1=O`, the RP-LC retention time worked out at 766 s.

Compound `Cn1c(=O)c2c(nc3n2CC(=O)N(CCc2ccccc2)C3)n(C)c1=O` gave an RP-LC retention time of 657 s.

`Cc1cccc(S(=O)(=O)N2CC=C(c3cn(C)c4ncccc34)CC2)c1` displayed an RP-LC retention time of 898 s.

Take `CCOC(=O)Cc1csc(NC(=O)c2cc(=O)c(OCc3ccccc3)c[nH]2)n1`: the RP-LC retention time amounted to 797 s.

With `Cc1cc(C)nc(NS(=O)(=O)c2ccc(NC(=O)c3ccc(Cl)s3)cc2)n1`, the RP-LC retention time came out at 755 s.

With `Cc1ccc(-c2nnc(CC(=O)NCCc3ccc(Cl)cc3)o2)cc1`, the RP-LC retention time is 906 s.

In turn, `CCC(=O)N1CCC2(CC1)CC(CC(=O)N(C)C)CCO2` (stereo not given) displayed an RP-LC retention time of 598 s.

Consider `O=C(NCC1CCCO1)c1nnn(-c2ccccc2Cl)c1-c1ccncc1` (stereo not given), for which the RP-LC retention time stood at 693 s.

Consider `COc1ccccc1NC(=O)N1CCc2nc(CNC(=O)C3CCC3)n(C)c2C1`, for which the RP-LC retention time came out at 604 s.

`COc1ccc(C(=O)N2C[C@H](c3nc(-c4ccccc4)no3)[C@@H](C)C2)cc1F`: the RP-LC retention time was determined as 991 s.

`Cc1sc(C)c(S(=O)(=O)Nc2ccccc2F)c1-c1cc(C(F)(F)F)on1`: the RP-LC retention time worked out at 1130 s.

Compound `O=C(Cn1c(=O)c2cccn2c2ccc(F)cc21)NCCCN1CCCC1=O` yielded an RP-LC retention time of 647 s.

In turn, `CC(C)Cn1c(=O)c2cc(C(=O)NC(C)c3ccccc3)nn2c2ccccc21` (stereo not given) returned an RP-LC retention time of 1090 s.

Turning to `O=C(c1ccc(F)cc1F)N1CCc2nc(-c3ccc(Cl)cc3)ncc2C1`, the RP-LC retention time came out at 1060 s.

In the case of `CCC(C)CC(=O)N1CCCN(C2=NS(=O)(=O)C(c3ccc(C(C)C)cc3)=C2C)CC1` (stereo not given), the RP-LC retention time amounted to 1000 s.

For `CN(C)c1ccc(C(=O)NCC(=O)Nc2nc3ccccc3[nH]2)cc1`, the RP-LC retention time stood at 625 s.

`CCc1cccc(C)c1NC(=O)Cn1c(=O)n(-c2ccc(C)cc2)c(=O)c2c1cc(C)n2C` showed an RP-LC retention time of 909 s.

Compound `O=C(NCCN1CCCCC1)C1CCN(c2cnn(Cc3ccccc3)c(=O)c2)CC1` had an RP-LC retention time of 614 s.

With `CSc1ccc(-c2noc(Cn3ncn4nc(-c5cccs5)cc4c3=O)n2)cc1`, the RP-LC retention time is 1130 s.

As to `CCc1nc2cc(-c3noc(Cc4cccc(C(F)(F)F)c4)n3)ccc2o1`, the RP-LC retention time was 1170 s.

Turning to `COc1ccccc1CNC(=O)Cc1nnc(-c2ccccn2)o1`, the RP-LC retention time amounted to 671 s.

Compound `CNc1cc(-c2ccccc2)[nH]n1` gave an RP-LC retention time of 553 s.

`CC1CCc2[nH]nc(C(=O)NC3CCCC3)c2C1` (stereo not given) returned an RP-LC retention time of 806 s.

With `CCc1csc(-c2ccc(S(=O)(=O)NCCN3CCC(C)CC3)s2)n1`, the RP-LC retention time is 718 s.

As for `Cc1ccccc1-c1nnc(CSc2nnc(NC(=O)CCc3ccccc3)s2)o1`, the RP-LC retention time came out at 977 s.

Take `CCn1c(C(=O)N2CCCC(C(=O)N3CCc4ccccc4C3)C2)cc2sccc21` (stereo not given): the RP-LC retention time was determined as 966 s.

Turning to `CCCNC(=O)C1CCN(c2ccc(SCC(=O)Nc3ccccc3OC)nn2)CC1`, the RP-LC retention time stood at 611 s.

`Cc1cc(=O)n(CC(=O)Nc2ccc(F)cc2Cl)c(N2CCCCC2)n1` yielded an RP-LC retention time of 718 s.

As for `Cc1ccc(-n2nc(N3CCCC(C(=O)NCCC4=CCCCC4)C3)ccc2=O)cc1Cl` (stereo not given), the RP-LC retention time worked out at 1060 s.

As to `CC(C)(C)c1csc(NC(=O)C2CC(=O)N(c3n[nH]c4cccc(F)c34)C2)n1` (stereo not given), the RP-LC retention time is 838 s.

`COc1cccc(NC(=O)N2CC(C)Oc3ccc(C)cc32)c1` (stereo not given) showed an RP-LC retention time of 654 s.

Consider `COc1ccc(OC)c(NS(=O)(=O)c2cc(-c3nc(C(C)(C)C)cs3)cs2)c1`, for which the RP-LC retention time is 1250 s.

Compound `O=C1CC(NC(=O)NCc2ccc(Cl)cc2)CN1` (stereo not given) registered an RP-LC retention time of 592 s.

The compound `COCCOCc1nc(C2CCN(S(=O)(=O)c3cc(F)ccc3F)C2)no1` (stereo not given) displayed an RP-LC retention time of 817 s.

`CCCCN(C)S(=O)(=O)c1c(C)nn(-c2ccc(-c3ccccc3)nn2)c1C` returned an RP-LC retention time of 1160 s.

As to `O=C(Nc1ccc2c(c1)OCCO2)N1CCC(Oc2ccccc2)C1` (stereo not given), the RP-LC retention time amounted to 639 s.

As to `Cc1cc2nn(CC(=O)Nc3cccc(Cl)c3)c(=O)n2c(Nc2ccccc2C)n1`, the RP-LC retention time amounted to 1100 s.

Compound `O=C(NC1CC1)C1CCN(c2nc3ncn(CC(=O)N4CCc5ccccc5C4)c(=O)c3s2)CC1` yielded an RP-LC retention time of 674 s.

As to `CN(C(=O)Cn1nc(Cc2cccnc2)c2ccccc2c1=O)c1ccc(Br)cc1`, the RP-LC retention time turned out to be 679 s.

Take `COc1ccc(C2Cn3nnc(-c4nc(-c5ccc(OC)c(F)c5)no4)c3CO2)cc1` (stereo not given): the RP-LC retention time was 1040 s.
